# Measurements from US10054581B1, “Inhibitors of notch signaling pathway and use thereof in treatment of cancers” (Ecole Polytechnique Federale de Lausanne (EPFL), priority 2011, dated 2018).
# “Also recorded” adds a separate entry of the source.
# Assays:
# RPMI 8402 = assay: Alamar blue proliferation assay, RPMI 8402; assay type: cell-based, human; settings: 10 μM, up to 6 days
# Description: Human T-ALL cell lines RPMI 8402 and KOPTK1, and pancreatic cancer cell line PANC1 as well as nRas driven melanoma cells were seeded in a 96 well plate and treated with 10 μM concentration of 6-(4-Tert-Butylphenoxy)Pyridin-3-Amine (I3) and DAPT for several days. Their growth inhibitory effects were compared with cells treated with equal amount of DMSO. Using Alamar blue assay, the growth kinetics of RPMI 8402 and KOPTK1 were followed for upto 6 days, while PANC1 and nRas melanoma cells were monitored for 4 days. 6-(4-Tert-Butylphenoxy)Pyridin-3-Amine (I3) treatment of RPMI 8402, KOPTK1. […] Statistical analyses were done using student's t.test. *=p value<0.05. ns=not significant.
# Alamarblue® proliferation assays were performed to determine the growth kinetics of Notch inhibitor treated cells. Alamar Blue® consists of a cell permeable substrate resazurin. In metabolically active and proliferating cells, resazurin is converted to resorufin due to an intrinsic reducing power of live cells and produces a red fluorescence. Therefore production of resorufin serves as an indicator of the viability of the cell population.
# Proliferation assays were performed by seeding 5000 cells/well in a 96 well plate. Cells were treated with DMSO or Notch inhibitors for different time intervals. […] Alamarblue readout was taken using Tecan F500 (Tecan) multiplate reader. […]
# [1] = tested on: Notch1-intracellular domain (NICD) mediated Notch signalling; assay: NICD transfected HeLa cells, 12×CSL luciferase reporter; assay type: cell-based; settings: HeLa cells transfected with NICD; I3 2-40 μM, DAPT 5-40 μM
# Source text: To measure the Notch signalling activation, CSL/RBP-jk consensus DNA binding sequences were cloned in a head to tail conformation in the pGL4 luciferase vector (Promega), thus named 12×CSL/RBP-jjk luciferase vector. In order to determine the Notch pathway activation in chemical compound screening assay, 12×CSL/RBP-jk consensus DNA binding sequences were cloned into pGL4.26.luciferase vector (Promega). As an internal control for transfection efficiency, SV40 Renilla vector was used (Promega).
# NICD-GFP overexpression studies were performed using pEGFP-C1-NICD expression plasmid. The FLAG-CMV2 plasmid expressing MAML1-FLAG was a kind gift from Dr. Lizi Wu, Harvard Medical School, Boston.
# The transfected cells were treated with an increasing concentration of I3 and DAPT.
# C2C12 myoblasts = assay: C2C12 myoblast differentiation assay; assay type: cell-based; settings: growth medium (10% serum), 3 days
# Description: C2C12 cells were grown on collagen-coated cover slip in the presence of growth media (10% serum). To induce myoblast differentiation, cells were grown to 100% confluency for 3 days in the presence of differentiation media (2% horse serum) or in the presence of growth media+Notch inhibitors. After 3 days, cells were washed with 1× ice-cold PBS and fixed with 4% PFA. Immunofluorescence staining was performed using anti-MHC antibody as explained in the section 2.2.6 (Immunofluorescence staining).
# To further confirm the Notch inhibitory potential of 6-(4-Tert-Butylphenoxy)Pyridin-3-Amine (I3) in different systems, C2C12 myoblast differentiation was used as a functional assay. The Notch pathway activation in C2C12 myoblasts retains them in an undifferentiated state, while abrogation of Notch signalling induces their differentiation. C2C12 myoblasts were treated with DMSO, 6-(4-Tert-Butylphenoxy)Pyridin-3-Amine (I3) and DAPT and grown to 100% confluency for 3 days. After three days, cells were fixed and stained with antibodies against Myosin Heavy Chain (MHC) protein. Cell nuclei were counterstained with DAPI.
SMILES,proliferation (Alamar blue) (RPMI 8402),NICD mediated Notch signalling activation [1],differentiation into MHC positive myotubes (C2C12 myoblasts)
"C[C@H](NC(=O)Cc1cc(F)cc(F)c1)C(=O)N[C@H](C(=O)OC(C)(C)C)c1ccccc1 [DAPT, N—[N-(3,5-difluorophenacetyl-Lalanyl)]-(S)-phenylglycine t-butyl ester, reference compound]",induced a significant proliferation block,had no effect on the signalling activation; also recorded: had no effect on Notch signalling activation mediated by NICD,started to differentiate into multinucleated MHC positive myotubes
"CC(C)(C)c1ccc(Oc2ccc(N)cn2)cc1 [I3, 6-(4-Tert-Butylphenoxy)Pyridin-3-Amine]",induced a significant proliferation block; also recorded: caused a significant reduction in their growth potential,could block pathway activation in a dose-dependent manner; also recorded: could also block pathway activation by Notch1-intracellular domain (NICD) and Notch2-intracellular domain (N2-ICD); also recorded: led to an attenuation of the signalling; also recorded: inhibits pathway activation via intracellular domains of Notch1 (NICD) and Notch2 (N2-ICD); also recorded: found to block NICD mediated pathway activation,started to differentiate into multinucleated MHC positive myotubes; also recorded: can induce differentiation of C2C12 cells into MHC expressing multinucleated myotubes
